According to patent US10442796B2, “2,3,5-substituted thiophene compound as protein kinase inhibitor” (KOREA INSTITUTE OF SCIENCE AND TECHNOLOGY, priority 2016, dated 2019):
Residue numbers refer to the chain shown, from its start. Where a name gives a salt, the structure may show the parent alone.

Key:
Assay in all cases: Growth inhibitory activity against Ba/F3 cell line
Type in all cases: cell-based
Parental Ba/F3 cells = settings: BaF3; Parental Ba/F3 with mouse IL-3 1 ng/mL; 72 hours; cell titer glo
Protocol: (§1) A Ba/F3 cell line expressing an FLT3 mutation gene was cultured in a culture solution including 90% RPMI, 10% FBS, and an antibiotic (Welgene). 100 uL of the Ba/F3 cell line was put into each of 5,000 wells of a TC-treated 96 well plate (SPL), and then 1 uL of a test compound diluted in dimethylsulfoxide (diluted for each 3 paint from a concentration of 1 mM, total 10 concentrations) was each injected thereinto. Thereafter, the resulting cell lines were incubated in a cell culture incubator for 72 hours. 50 uL of a cell titer glo (Promega) solution was added thereto, the resulting mixture was stored at room temperature for 10 minutes, and then the light emission intensity was measured by using a reader (Envision, PerkinElmer). The light emission intensity was shown as a graph for each final concentration of the test compound, and the GI50 value was obtained by using a Prism 5.0 (GraphPad) software.
A parental Ba/F3 cell line having no FLT3 mutation gene was cultured by using a culture solution supplemented with mouse IL-3 (R&D Systems), such that a final concentration became 1 ng/mL in the culture solution including 90% RPMI, 10% FBS, and an antibiotic (Welgene). The activity was measured by a method which is the same as described above.

FLT3-ITD Ba/F3 cells = biological target: T1, FLT3-ITD Ba/F3 cells (Homo sapiens, UniProt P36888, cells depend on it, form not given); settings: Ba/F3 expressing FLT3-ITD; 72 hours; cell titer glo; read-out: IC50 (uM) FLT3-ITD
T1 sequence (P36888 1-993): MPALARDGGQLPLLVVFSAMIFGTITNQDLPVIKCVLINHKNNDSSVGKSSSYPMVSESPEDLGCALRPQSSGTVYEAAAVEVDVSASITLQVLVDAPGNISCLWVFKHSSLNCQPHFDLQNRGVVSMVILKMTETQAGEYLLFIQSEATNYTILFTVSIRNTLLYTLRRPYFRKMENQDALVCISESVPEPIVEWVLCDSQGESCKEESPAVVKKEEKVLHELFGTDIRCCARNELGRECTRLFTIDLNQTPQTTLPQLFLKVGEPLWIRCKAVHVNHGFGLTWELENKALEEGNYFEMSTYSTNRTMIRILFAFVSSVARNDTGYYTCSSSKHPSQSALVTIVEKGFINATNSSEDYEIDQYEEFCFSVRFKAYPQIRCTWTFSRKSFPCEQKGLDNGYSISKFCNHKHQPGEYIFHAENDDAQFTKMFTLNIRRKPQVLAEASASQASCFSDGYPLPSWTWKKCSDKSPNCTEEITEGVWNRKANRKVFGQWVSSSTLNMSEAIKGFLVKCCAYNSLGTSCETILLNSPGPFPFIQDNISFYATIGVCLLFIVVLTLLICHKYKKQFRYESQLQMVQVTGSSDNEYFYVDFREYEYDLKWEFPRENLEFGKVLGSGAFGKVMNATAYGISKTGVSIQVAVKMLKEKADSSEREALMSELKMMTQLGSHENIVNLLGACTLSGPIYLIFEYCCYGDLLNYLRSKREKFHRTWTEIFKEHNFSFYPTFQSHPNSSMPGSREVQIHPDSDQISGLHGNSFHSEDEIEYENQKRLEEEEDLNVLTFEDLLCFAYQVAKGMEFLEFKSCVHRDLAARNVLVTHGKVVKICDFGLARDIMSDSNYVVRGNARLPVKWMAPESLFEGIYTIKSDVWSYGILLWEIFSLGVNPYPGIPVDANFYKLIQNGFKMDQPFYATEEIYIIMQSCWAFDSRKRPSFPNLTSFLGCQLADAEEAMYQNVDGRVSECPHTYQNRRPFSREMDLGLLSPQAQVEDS
Protocol: as §1

[1] = biological target: T2, FLT3-ITD-F691L-D835Y Ba/F3 cells (Homo sapiens, UniProt P36888, F691L/D835Y, cells depend on it, form not given); settings: Ba/F3 expressing FLT3-ITD-F691L-D835Y; 72 hours; cell titer glo; read-out: IC50 (uM) FLT3-ITD-F691L-D835Y
T2 sequence (P36888 1-993 F691L/D835Y): T1 sequence (P36888 1-993) with F691L, D835Y
Protocol: as §1

SMILES	GI50 (FLT3-ITD Ba/F3 cells)	GI50 [1]	IC50 (Parental Ba/F3 cells)
NC(=O)Nc1cc(CCc2cccc(F)c2)sc1C(=O)N[C@H]1CCCCNC1 [Example 54, (S)—N-(azepan-3-yl)-5-(3-fluorophenethyl)-3-ureidothiophene-2-carboxamide]	1.93 µM	1.02 µM	> 33 µM
NC(=O)Nc1cc(C#Cc2ccc(C(F)(F)F)nc2)sc1C(=O)N[C@H]1CCCNC1 [Example 17, (S)—N-(piperidin-3-yl)-5-((6-(trifluoromethyl)pyridin-3-yl)ethynyl)-3-ureidothiophene-2-carboxamide]	< 0.005 µM	< 0.004 µM	2.37 µM
NC(=O)Nc1cc(C#Cc2ccc(F)cc2)sc1C(=O)N[C@H]1CCCNC1 [Example 9, (S)-5-((4-fluorophenyl)ethynyl)-N-(piperidin-3-yl)-3-ureidothiophene-2-carboxamide]	< 0.001 µM	< 0.001 µM	0.429 µM
NC(=O)Nc1cc(C#Cc2ccc([N+](=O)[O-])cc2)sc1C(=O)N[C@H]1CCCNC1 [Example 7, (S)-5-((4-nitrophenyl)ethynyl)-N-(piperidin-3-yl)-3-ureidothiophene-2-carboxamide]	< 0.005 µM	< 0.004 µM	1.86 µM
N#Cc1ccc(C#Cc2cc(NC(N)=O)c(C(=O)N[C@H]3CCCNC3)s2)cc1 [Example 11, (S)-5-((4-cyanophenyl)ethynyl)-N-(piperidin-3-yl)-3-ureidothiophene-2-carboxamide]	< 0.001 µM	< 0.001 µM	0.143 µM
NC(=O)Nc1cc(C#Cc2cccc(F)c2)sc1C(=O)NC1CCNC1 (stereo not drawn) [Example 40, 5-((3-fluorophenyl)ethynyl)-N-(pyrrolidin-3-yl)-3-ureidothiophene-2-carboxamide]	0.164 µM	0.079 µM	14.9 µM
N#Cc1cccc(C#Cc2cc(NC(N)=O)c(C(=O)N[C@H]3CCCNC3)s2)c1 [Example 6, (S)-5-((3-cyanophenyl)ethynyl)-N-(piperidin-3-yl)-3-ureidothiophene-2-carboxamide]	< 0.005 µM	< 0.004 µM	1.59 µM
NC(=O)Nc1cc(C#Cc2cccc(F)c2)sc1C(=O)N[C@H]1CCCNC1 [Example 22, (S)-5-((3-fluorophenyl)ethynyl)-N-(piperidin-3-yl)-3-ureidothiophene-2-carboxamide]	0.007 µM	< 0.001 µM	3.65 µM

Second part, led by results:

GI50 (FLT3-ITD Ba/F3 cells)	GI50 [1]	SMILES	IC50 (Parental Ba/F3 cells)
0.005 µM	0.002 µM	Cc1ccc(C#Cc2cc(NC(N)=O)c(C(=O)N[C@H]3CCCNC3)s2)cc1 [Example 24, (S)—N-(piperidin-3-yl)-5-(p-tolylethynyl)-3-ureidothiophene-2-carboxamide]	1.29 µM
0.013 µM	0.007 µM	Cn1cc(C#Cc2cc(NC(N)=O)c(C(=O)N[C@H]3CCCCNC3)s2)cn1 [Example 41, (S)—N-(azepan-3-yl)-5-((1-methyl-1H-pyrazol-4-yl)ethynyl)-3-ureidothiophene-2-carboxamide trifluoroacetate]	3.69 µM
< 0.005 µM	< 0.004 µM	NC(=O)Nc1cc(C#Cc2ccnc(F)c2)sc1C(=O)N[C@H]1CCCNC1 [Example 21, (S)-5-((2-fluoropyridin-4-yl)ethynyl)-N-(piperidin-3-yl)-3-ureidothiophene-2-carboxamide]	2.78 µM
0.137 µM	0.116 µM	NC(=O)Nc1cc(C#Cc2cn[nH]c2)sc1C(=O)N[C@H]1CCCCNC1 [Example 42, (S)-5-((1H-pyrazol-4-yl)ethynyl)-N-(azepan-3-yl)-3-ureidothiophene-2-carboxamide trifluoroacetate]	54.4 µM
0.007 µM	0.02 µM	CS(=O)(=O)N1CCC(n2cc(C#Cc3cc(NC(N)=O)c(C(=O)N[C@H]4CCCNC4)s3)cn2)CC1 [Example 23, (S)-5-((1-(1-(methylsulfonyl)piperidin-4-yl)-1H-pyrazol-4-yl)ethynyl)-N-(piperidin-3-yl)-3-ureidothiophene-2-carboxamide]	> 5 µM
6.28 µM	> 4 µM	Cn1cc(CCc2cc(NC(N)=O)c(C(=O)N[C@H]3CCCCNC3)s2)cn1 [Example 52, (S)—N-(azepan-3-yl)-5-(2-(1-methyl-1H-pyrazol-4-yl)ethyl)-3-ureidothiophene-2-carboxamide trifluoroacetate]	> 100 µM
0.003 µM	0.003 µM	NC(=O)Nc1cc(C#Cc2cnn(C3CCOCC3)c2)sc1C(=O)N[C@H]1CCCCNC1 [Example 46, (S)—N-(azepan-3-yl)-5-((1-(tetrahydro-2H-pyran-4-yl)-1H-pyrazol-4-yl)ethynyl)-3-ureidothiophene-2-carboxamide trifluoroacetate]	0.3 µM
0.038 µM	0.019 µM	COCCn1cc(C#Cc2cc(NC(N)=O)c(C(=O)N[C@H]3CCCCNC3)s2)cn1 [Example 45, (S)—N-(azepan-3-yl)-5-((1-(2-methoxyethyl)-1H-pyrazol-4-yl)ethynyl)-3-ureidothiophene-2-carboxamide trifluoroacetate]	16.8 µM
